Reference: patent US9902728B2, “Pyrrolo and pyrazolopyrimidines as ubiquitin-specific protease 7 inhibitors” (Forma Therapeutics, Inc., priority 2014, dated 2018)
Read-outs that look alike come from different tables or passages of the source.

Target: T1, USP7 (Homo sapiens, UniProt Q93009)
T1 construct: USP7, construct USP7 (208-1102) 6*His, Viva Biotech; 6xHis (C); purchased Viva Biotech
Assay: USP7 Assay A (Ubitquin-Rhodamine 110 Assay)
Format: biochemical
Details: read-out: USP7_IC50
Procedure, shortened: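 Ub-Rh110 cleavage in 20 mM Tris-HCl pH 8.0 with 1 mM GSH, 0.03% BGG, 0.01% Triton X-100; compound preincubated with enzyme 30 min before substrate.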

[1] = USP7 activity in USP7 assay A and B (table does not say which assay per compound)
[2] = USP7 assay A and B (table does not say which assay per compound)

T1 sequence (Q93009 208-1102): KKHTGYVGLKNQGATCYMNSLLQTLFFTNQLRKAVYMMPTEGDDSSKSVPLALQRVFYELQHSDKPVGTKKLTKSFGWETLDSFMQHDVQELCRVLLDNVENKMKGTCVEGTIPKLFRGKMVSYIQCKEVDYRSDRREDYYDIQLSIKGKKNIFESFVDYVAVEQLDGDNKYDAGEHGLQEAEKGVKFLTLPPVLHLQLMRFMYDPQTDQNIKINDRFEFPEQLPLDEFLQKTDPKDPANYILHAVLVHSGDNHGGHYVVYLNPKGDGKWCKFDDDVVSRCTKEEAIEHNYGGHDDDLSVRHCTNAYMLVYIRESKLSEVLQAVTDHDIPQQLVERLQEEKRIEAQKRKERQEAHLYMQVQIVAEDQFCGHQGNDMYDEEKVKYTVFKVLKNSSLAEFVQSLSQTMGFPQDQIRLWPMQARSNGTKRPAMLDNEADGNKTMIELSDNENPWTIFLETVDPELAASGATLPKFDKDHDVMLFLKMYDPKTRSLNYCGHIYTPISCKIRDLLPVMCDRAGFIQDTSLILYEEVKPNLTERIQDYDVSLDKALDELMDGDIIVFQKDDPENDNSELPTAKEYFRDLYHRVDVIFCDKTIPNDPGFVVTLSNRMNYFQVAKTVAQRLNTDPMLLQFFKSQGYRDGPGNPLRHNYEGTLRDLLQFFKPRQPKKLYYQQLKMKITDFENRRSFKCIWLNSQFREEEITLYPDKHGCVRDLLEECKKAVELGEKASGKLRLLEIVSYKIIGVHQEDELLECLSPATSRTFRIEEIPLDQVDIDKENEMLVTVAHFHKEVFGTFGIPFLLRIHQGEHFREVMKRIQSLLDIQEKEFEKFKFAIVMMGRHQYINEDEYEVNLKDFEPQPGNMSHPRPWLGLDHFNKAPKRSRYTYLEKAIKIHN

Structure (SMILES) | IC50 [1] [nM] | IC50 [2] [nM]
O=C(C1CCC(Oc2ccccn2)CC1)N1CCC(O)(Cn2cnc3c(cnn3-c3ccc(F)cc3)c2=O)CC1 (stereo not drawn) [Compound I-544] | 1000 to 10000 | 
CC1(C(=O)N2CCC(O)(Cn3cnc4c(cnn4-c4ccc(N5CCC(C#N)CC5)cc4)c3=O)CC2)CC1 [Compound I-1752] | 200 to 1000 | 
CN(C)c1ncc(C(=O)N2CCC(O)(Cn3cnc4c(cnn4-c4ccc(F)cc4)c3=O)CC2)o1 [Compound I-315] |  | 1000 to 10000
O=C(C1CCC(Oc2cccc(F)n2)CC1)N1CCC(O)(Cn2cnc3c(cnn3-c3ccc(F)cc3)c2=O)CC1 (stereo not drawn) [Compound I-739] | < 200 | 
O=C(C1CC1)N1CCC(O)(Cn2cnc3c(cnn3-c3ccc(-c4cccc5oncc45)cc3)c2=O)CC1 [Compound I-1738] | 1000 to 10000 | 
O=C(c1ccc(F)cc1)N1CCC(O)(Cn2cnc3c(cnn3-c3ccc(N4CCn5ncnc5C4)cc3)c2=O)CC1 [Compound I-1178] | 1000 to 10000 | 
Cc1ccc(-n2ncc3c(=O)n(CC4(O)CCN(C(=O)C[C@@H](C(F)F)n5cccn5)CC4)cnc32)cc1 [Compound I-1061] |  | 1000 to 10000
Cn1ccc2c(=O)n(CC3(O)CCN(C(=O)CC(C(F)F)n4ccc(F)n4)CC3)cnc21 (single isomer, unassigned) [Compound I-1695] | < 200 | 
CC(c1ccccc1)c1nn(C)cc1C(=O)N1CCC(O)(Cn2cnc3c(cnn3-c3ccc(F)cc3)c2=O)CC1 (stereo not drawn) [Compound I-1025] | 200 to 1000 | 
Cn1cc(OC2CCC(C(=O)N3CCC(O)(Cn4cnc5c(cnn5-c5ccc(F)cc5)c4=O)CC3)CC2)cn1 (stereo not drawn) [Compound I-758] | 200 to 1000 | 
CN1CC2CCC(C1)N2c1ccc(C(=O)N2CCC(O)(Cn3cnc4c(cnn4-c4ccc(F)cc4)c3=O)CC2)cc1 [Compound I-1681] | 1000 to 10000 | 
O=C(C1CCC(Oc2ccc(F)cn2)CC1)N1CCC(O)(Cn2cnc3c(cnn3-c3ccc(F)cc3)c2=O)CC1 (stereo not drawn) [Compound I-737] | < 200 | 
O=C(C1CC1)N1CCC(O)(Cn2cnc3c(cnn3-c3ccc(NS(=O)(=O)c4cccc(Cl)c4)cc3)c2=O)CC1 [Compound I-1428] |  | 1000 to 10000
CC(C)OCCNc1ccc(-n2ncc3c(=O)n(CC4(O)CCN(C(=O)C5CC5)CC4)cnc32)cc1 [Compound I-1149] |  | 1000 to 10000
O=C(C1CC1)N1CCC(O)(Cn2cnc3c(cnn3-c3cccc(C(F)(F)F)c3)c2=O)CC1 [Compound I-34] |  | > 10000
O=C(c1ccc(F)cc1)N1CCC(O)(Cn2cnc3c(cnn3-c3ccc(N4CCC5(CC4)CC(CO)C5)cc3)c2=O)CC1 [Compound I-1740] | 200 to 1000 | 
CC1(C(=O)N2CCC(O)(Cn3cnc4c(cnn4-c4cccc(N5CCC(C6COC6)CC5)c4)c3=O)CC2)CC1 [Compound I-1691] | 200 to 1000 | 
O=C(c1cnc(C2CC2)o1)N1CCC(O)(Cn2cnc3c(cnn3-c3ccc(N4CCC(F)(F)CC4)cc3)c2=O)CC1 [Compound I-699] | 200 to 1000 | 
COc1cc(-n2ncc3c(=O)n(CC4(O)CCN(C(=O)c5ccc(F)cc5)CC4)cnc32)ccc1F [Compound I-627] |  | 1000 to 10000
O=C(c1ccc(Cl)cc1)N1CCC(O)(Cn2cnc3c(cnn3-c3ccc(F)cc3)c2=O)CC1 [Compound I-302, 5-{[1-(4-chlorobenzoyl)-4-hydroxypiperidin-4-yl]methyl}-1-(4-fluorophenyl)-1H,4H,5H-pyrazolo[3,4-d]pyrimidin-4-one] |  | 200 to 1000
Cc1ccc(-n2ncc3c(=O)n(CC4(O)CCN(C(=O)c5cnc(C6CC6)o5)CC4)cnc32)cc1 [Compound I-1542] |  | 200 to 1000
O=C(c1cnc(C2CC2)o1)N1CCC(O)(Cn2cnc3c(cnn3-c3ccc(OCC4(F)CCC4)cc3)c2=O)CC1 [Compound I-981] | < 200 | 
Cc1ccc(-n2ncc3c(=O)n(CC4(O)CCN(C(=O)c5ccc(OC6CN(C)C6)cc5)CC4)cnc32)cc1 [Compound I-1142] |  | 1000 to 10000
O=C(O)Cc1cccc(-n2ncc3c(=O)n(CC4(O)CCN(C(=O)c5ccccc5)CC4)cnc32)c1 [Compound I-11, 2-(3-(5-((1-Benzoyl-4-hydroxypiperidin-4-yl)methyl)-4-oxo-4,5-dihydro-1H-pyrazolo[3,4-d]pyrimidin-1-yl)phenyl)acetic acid] |  | > 10000
